Results reported in US20240307434A1, “USE OF LUTETIUM SALT COMPOUNDS FOR ANTIVIRAL EFFECT” (priority 2022, published 2024).

Tested on: Adenovirus, Poliovirus, Herpes Simplex Type 1 and Herpes Simplex Type 2, Coronavirus and Norovirus strains

Substance: lutetium Borate [LuBO3]
- antiviral efficacy: exhibit antiviral efficacy
